Experimental data from patent US11299487B2, “Compounds and compositions as modulators of TLR signaling” (Neuropore Therapies, Inc., priority 2019, dated 2022).
Read-outs that look alike come from different tables or passages of the source.

What was measured:
Type in all cases: cell-based
[1] = target: T1, human TLR9 (Homo sapiens, UniProt Q9NR96); assay: HEK-Blue hTLR9 assay (SEAP reporter) with agonist ODN 2006; conditions: HEK-Blue hTLR9 cells, ~3×EC50 ODN 2006, 18 h, exact values 8-point dilutions, approximate (~ or <) 4-point dilutions, read-out: ~IC50 (μM) with ODN2006
T1 construct: host or cells: HEK-Blue hTLR9 (HEK-293)
T1 sequence (Q9NR96 26-1032): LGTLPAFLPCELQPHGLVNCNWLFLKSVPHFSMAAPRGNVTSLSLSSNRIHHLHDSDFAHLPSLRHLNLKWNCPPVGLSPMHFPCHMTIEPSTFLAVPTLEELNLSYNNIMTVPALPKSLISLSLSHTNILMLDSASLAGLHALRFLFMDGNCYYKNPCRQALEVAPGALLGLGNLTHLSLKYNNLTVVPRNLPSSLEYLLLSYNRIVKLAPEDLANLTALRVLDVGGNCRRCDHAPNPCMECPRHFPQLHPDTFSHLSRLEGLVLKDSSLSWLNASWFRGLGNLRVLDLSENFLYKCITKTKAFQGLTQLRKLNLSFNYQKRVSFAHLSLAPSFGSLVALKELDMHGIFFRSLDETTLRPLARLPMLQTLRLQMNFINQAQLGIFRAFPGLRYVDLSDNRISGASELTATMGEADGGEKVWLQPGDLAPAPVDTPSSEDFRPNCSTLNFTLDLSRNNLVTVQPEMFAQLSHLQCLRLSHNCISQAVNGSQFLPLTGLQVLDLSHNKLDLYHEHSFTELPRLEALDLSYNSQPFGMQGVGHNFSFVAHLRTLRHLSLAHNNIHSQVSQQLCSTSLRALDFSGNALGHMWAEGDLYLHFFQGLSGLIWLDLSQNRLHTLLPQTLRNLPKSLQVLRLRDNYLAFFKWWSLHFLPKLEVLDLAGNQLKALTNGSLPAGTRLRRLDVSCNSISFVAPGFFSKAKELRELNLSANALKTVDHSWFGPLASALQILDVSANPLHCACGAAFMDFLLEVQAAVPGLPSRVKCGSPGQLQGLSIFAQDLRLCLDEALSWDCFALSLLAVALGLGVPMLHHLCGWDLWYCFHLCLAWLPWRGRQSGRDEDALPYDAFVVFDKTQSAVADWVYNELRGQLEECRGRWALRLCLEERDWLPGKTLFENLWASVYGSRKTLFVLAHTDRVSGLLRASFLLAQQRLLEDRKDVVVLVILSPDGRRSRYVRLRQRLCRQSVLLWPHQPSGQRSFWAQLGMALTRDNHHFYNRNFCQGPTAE
Experimental: Synthetic ODNs (ODN 2006 (ODN7909), class B CpG oligonucleotide, TLR9 agonist) was obtained from InvivoGen and was dissolved in endotoxin-free water to a concentration 500 μM, vortexed until complete solubilization, and stored in aliquots at −20° C. Prior to addition to cells, an aliquot of the dissolved ligand was vortexed shortly and then was diluted in medium to 50 μM. The EC50 of the agonist for each assay run was determined by using 3-fold dilutions from the starting concentration 10 μM.
Test compounds were solubilized fresh to 10-20 mM stocks in DMSO and sonicated for 5-10 minutes in a water bath sonicator. Serial dilutions were prepared in DMSO, and then diluted in medium. The final concentration of DMSO used in the assay was 1%.
HEK-Blue hTLR9 reporter cells (InvivoGen) are HEK-293 cells stably expressing both the human TLR9 gene and a secreted embryonic alkaline phosphatase (SEAP) reporter construct downstream of NFκB promotor sites. HEK-Blue hTLR9 cells were cultured according to manufacturer's protocol using Dulbecco's Modified Eagle Medium (DMEM; Gibco) containing 1× GlutaMax (Gibco), 10% heat-inactivated Fetal Bovine Serum (Gibco), Pen-Strep (50 U/mL penicillin, 50 μg/mL streptomycin, Gibco), 100 μg/mL Normocin (InvivoGen), and the selective antibiotics, 10 μg/mL Blasticidin (InvivoGen), and 100 μg/mL Zeocin (InvivoGen). Quanti-Blue reagent (InvivoGen) for detection and quantification of secreted alkaline phosphatase was dissolved in 100 mL of endotoxin-free water, warmed to 37° C. for 30 minutes and then filtered using a 0.2 μm membrane.
On day 1, 50 μL of each test compound dilution in duplicates or a vehicle control was added to each well of a 96-well plate followed by addition of 150 μL of HEK-Blue hTLR9 cell suspension (1×10^5 cells/well) and incubated at 37° C./5% CO2 for 2 h. Next, 50 μL of an approximate 3×EC50 concentration of TLR9 agonist, ODN 2006, was added to the wells containing test compounds or the vehicle control. The plates were then incubated at 37° C./5% CO2 for 18 h. For each assay run, vehicle-treated HEK-Blue hTLR9 cells were treated with serial dilutions of agonist to determine EC50 values for the respective run.
On day 2, secreted alkaline phosphatase (SEAP) activity was detected in cell culture supernatants. In brief, 30 μL was collected from each well and transferred to a 96-well plate. Next, 200 μL of Quanti-Blue detection reagent was added to each well. Plates were incubated at 37° C. for 60 min. and SEAP activity was assessed by spectrophotometer OD reading at 655 nm. Table A and Table B show the activities of the compounds tested in HEK-Blue hTLR9 cells against ODN 2006. The activities of the compounds against ODN 2006 are presented as IC50 values which were defined as concentrations of the compounds where percent inhibition of the signal induced by agonist is equal to 50. Exact IC50 values were calculated based on 8-point dilutions for each compound. Approximate IC50 values (˜ or <) were calculated based on 4-point dilutions for each compound.

[2] = target: T2, human TLR2 (Homo sapiens, UniProt O60603); assay: HEK-Blue hTLR2 antagonism assay (SEAP reporter) with agonist Pam3CSK4 (TLR1/2 agonist); conditions: HEK-Blue hTLR2 cells, ~3×EC50 Pam3CSK4, 18 h, SEAP OD 655 nm, 8-point dilutions
T2 construct: host or cells: HEK-Blue hTLR2 (HEK-293)
T2 sequence (O60603 21-784): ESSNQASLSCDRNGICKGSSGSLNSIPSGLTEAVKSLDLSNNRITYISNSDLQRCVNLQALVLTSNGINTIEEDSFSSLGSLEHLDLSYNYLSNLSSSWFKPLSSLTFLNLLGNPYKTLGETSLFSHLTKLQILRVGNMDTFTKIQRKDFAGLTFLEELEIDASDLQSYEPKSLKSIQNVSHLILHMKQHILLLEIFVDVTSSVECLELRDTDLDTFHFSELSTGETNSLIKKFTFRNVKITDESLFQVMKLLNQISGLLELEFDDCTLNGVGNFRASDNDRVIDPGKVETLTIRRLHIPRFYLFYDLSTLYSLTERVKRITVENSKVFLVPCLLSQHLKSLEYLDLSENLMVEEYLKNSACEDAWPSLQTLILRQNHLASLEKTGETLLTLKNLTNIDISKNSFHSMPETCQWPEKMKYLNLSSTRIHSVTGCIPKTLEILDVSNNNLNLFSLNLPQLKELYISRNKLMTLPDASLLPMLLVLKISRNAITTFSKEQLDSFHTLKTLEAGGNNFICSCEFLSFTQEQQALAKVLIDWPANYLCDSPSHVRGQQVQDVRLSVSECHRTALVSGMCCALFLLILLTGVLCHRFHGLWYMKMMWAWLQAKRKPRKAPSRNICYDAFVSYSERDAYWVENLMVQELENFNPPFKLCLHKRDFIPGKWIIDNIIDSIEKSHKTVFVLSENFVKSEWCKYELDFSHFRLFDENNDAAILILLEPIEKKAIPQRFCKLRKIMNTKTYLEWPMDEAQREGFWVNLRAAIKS

[3] = target: T2, human TLR2; assay: HEK-Blue hTLR2 antagonism assay (SEAP reporter) with agonist Pam2CSK4 (TLR2/6 agonist); conditions: HEK-Blue hTLR2 cells, ~3×EC50 Pam2CSK4, 18 h, SEAP OD 655 nm, 8-point dilutions

O=Cc1cc(-c2cnc(-c3ccc(N4CCCC4)cc3)s2)cc(F)c1O [Compound A55, 3-fluoro-2-hydroxy-5-(2-(4-(pyrrolidin-1-yl)phenyl)thiazol-5-yl)benzaldehyde]
IC50 ([1]; Table A): 0.2 µM | IC50 ([2]; Table A): 0.4 µM | IC50 ([3]; Table A): 0.6 µM

O=Cc1cc(-c2csc(-c3ccc(N4CCCC4)cc3)n2)cc(F)c1O [Compound A57, 3-fluoro-2-hydroxy-5-(2-(4-(pyrrolidin-1-yl)phenyl)thiazol-4-yl)benzaldehyde]
IC50 ([1]; Table A): 0.3 µM | IC50 ([2]; Table A): 0.3 µM | IC50 ([3]; Table A): 1 µM

O=Cc1cc(-c2nsc(-c3ccc(N4CCCC4)cc3)n2)cc(F)c1O [Compound A61, 3-fluoro-2-hydroxy-5-(5-(4-(pyrrolidin-1-yl)phenyl)-1,2,4-thiadiazol-3-yl)benzaldehyde]
IC50 ([1]; Table A): < 1.2 µM | IC50 ([2]; Table A): 1 µM | IC50 ([3]; Table A): 3.2 µM

O=Cc1cc(-c2nc(-c3ccc(N4CCCC4)cc3)ns2)cc(F)c1O [Compound A62, 3-fluoro-2-hydroxy-5-(3-(4-(pyrrolidin-1-yl)phenyl)-1,2,4-thiadiazol-5-yl)benzaldehyde]
IC50 ([1]; Table A): 0.2 µM | IC50 ([2]; Table A): 0.4 µM | IC50 ([3]; Table A): 0.7 µM

O=Cc1cc(-c2cnc(-c3ccccc3)o2)cc(F)c1O [Compound A88, 3-fluoro-2-hydroxy-5-(2-phenyloxazol-5-yl)benzaldehyde]
IC50 ([1]; Table A): ~3 µM | IC50 ([2]; Table A): 1.3 µM | IC50 ([3]; Table A): 2.1 µM

O=Cc1cc(-c2cnc(-c3ccccc3)s2)cc(F)c1O [Compound A91, 3-fluoro-2-hydroxy-5-(2-phenylthiazol-5-yl)benzaldehyde]
IC50 ([1]; Table A): < 1.2 µM | IC50 ([2]; Table A): 2.1 µM | IC50 ([3]; Table A): 3.8 µM

O=Cc1cc(-c2nc(-c3ccccc3)cs2)cc(F)c1O [Compound A93, 3-fluoro-2-hydroxy-5-(4-phenylthiazol-2-yl)benzaldehyde]
IC50 ([1]; Table A): < 1.2 µM | IC50 ([2]; Table A): 2.1 µM | IC50 ([3]; Table A): 4.8 µM

O=Cc1cc(-c2nnc(-c3ccccc3)s2)cc(F)c1O [Compound A94, 3-fluoro-2-hydroxy-5-(5-phenyl-1,3,4-thiadiazol-2-yl)benzaldehyde]
IC50 ([1]; Table A): < 1.2 µM | IC50 ([2]; Table A): 9.2 µM | IC50 ([3]; Table A): 14.8 µM

O=Cc1cc(-c2nc(-c3ccccc3)ns2)cc(F)c1O [Compound A95, 3-fluoro-2-hydroxy-5-(3-phenyl-1,2,4-thiadiazol-5-yl)benzaldehyde]
IC50 ([1]; Table A): ~1.4 µM | IC50 ([2]; Table A): 2.3 µM | IC50 ([3]; Table A): 3 µM

O=Cc1cc(-c2nc(-c3ccccc3)n[nH]2)cc(F)c1O [Compound A96, 3-fluoro-2-hydroxy-5-(3-phenyl-1H-1,2,4-triazol-5-yl)benzaldehyde]
IC50 ([1]; Table A): ~6.3 µM | IC50 ([2]; Table A): 8.8 µM | IC50 ([3]; Table A): 12.1 µM

O=Cc1cc(C#Cc2ccc(N3CCCC3)cc2)cc(F)c1O [Compound B1, 3-fluoro-2-hydroxy-5-((4-(pyrrolidin-1-yl)phenyl)ethynyl)benzaldehyde]
IC50 ([1]; Table B): < 1.2 µM | IC50 ([2]; Table B): 0.7 µM | IC50 ([3]; Table B): 1.1 µM

O=Cc1cc(C#Cc2ccc(N3CCOCC3)cc2)cc(F)c1O [Compound B3, 3-fluoro-2-hydroxy-5-((4-morpholinophenyl)ethynyl)benzaldehyde]
IC50 ([1]; Table B): < 1.2 µM | IC50 ([2]; Table B): 2.2 µM | IC50 ([3]; Table B): 3.7 µM

O=Cc1c(O)cc(C#Cc2ccc(N3CCCC3)cc2)cc1F [Compound B4, 2-fluoro-6-hydroxy-4-((4-(pyrrolidin-1-yl)phenyl)ethynyl)benzaldehyde]
IC50 ([1]; Table B): ~1.5 µM | IC50 ([2]; Table B): 2.7 µM | IC50 ([3]; Table B): 6.3 µM

COc1cc(C#Cc2ccc(N3CCCC3)cc2)cc(O)c1C=O [Compound B7, 2-hydroxy-6-methoxy-4-((4-(pyrrolidin-1-yl)phenyl)ethynyl)benzaldehyde]
IC50 ([1]; Table B): > 33 µM | IC50 ([2]; Table B): 20.8 µM | IC50 ([3]; Table B): 35.7 µM

O=Cc1cc(C(=O)Nc2ccccc2)cc(F)c1O [Compound B11, 3-fluoro-5-formyl-4-hydroxy-N-phenylbenzamide]
IC50 ([1]; Table B): < 1.2 µM | IC50 ([2]; Table B): 10.6 µM | IC50 ([3]; Table B): 12 µM

O=Cc1cc(C(=O)Nc2ccc(N3CCCC3)cc2)cc(F)c1O [Compound B12, 3-fluoro-5-formyl-4-hydroxy-N-(4-(pyrrolidin-1-yl)phenyl)benzamide]
IC50 ([1]; Table B): 0.7 µM | IC50 ([2]; Table B): 2 µM | IC50 ([3]; Table B): 2.7 µM

O=Cc1cc(C(=O)Nc2ccc(C(F)(F)F)c(Cl)c2)cc(F)c1O [Compound B14, N-(3-Chloro-4-(trifluoromethyl)phenyl)-3-fluoro-5-formyl-4-hydroxybenzamide]
IC50 ([1]; Table B): > 33 µM | IC50 ([2]; Table B): 1.5 µM | IC50 ([3]; Table B): 1.3 µM

O=Cc1cc(S(=O)(=O)Nc2ccc(N3CCCC3)cc2)cc(F)c1O [Compound B17, 3-fluoro-5-formyl-4-hydroxy-N-(4-(pyrrolidin-1-yl)phenyl)benzenesulfonamide]
IC50 ([1]; Table B): ~2.9 µM | IC50 ([2]; Table B): 6.6 µM | IC50 ([3]; Table B): 12.7 µM

O=Cc1cc(NC(=O)Nc2ccc(N3CCCC3)cc2)cc(F)c1O [Compound B65, 1-(3-fluoro-5-formyl-4-hydroxyphenyl)-3-(4-(pyrrolidin-1-yl)phenyl)urea]
IC50 ([1]; Table B): < 1.2 µM | IC50 ([2]; Table B): 3.7 µM | IC50 ([3]; Table B): 8.7 µM

O=Cc1cc(C(=O)Nc2ccc(N3CCC(F)(F)C3)cc2)cc(F)c1O [Compound B67, N-(4-(3,3-difluoropyrrolidin-1-yl)phenyl)-3-fluoro-5-formyl-4-hydroxybenzamide]
IC50 ([1]; Table B): < 1.2 µM | IC50 ([2]; Table B): 1.2 µM | IC50 ([3]; Table B): 3.3 µM

O=Cc1cc(C(=O)Nc2ccc(N3CCC(F)(F)CC3)cc2)cc(F)c1O [Compound B68, N-(4-(4,4-difluoropiperidin-1-yl)phenyl)-3-fluoro-5-formyl-4-hydroxybenzamide]
IC50 ([1]; Table B): < 1.2 µM | IC50 ([2]; Table B): 1 µM | IC50 ([3]; Table B): 3.5 µM
